Common to all, as to test: relative viability (nuclei count vs DMSO), 5 days (fraction); higher = more cells survive
Compound in one assay: CC1=C(N=C(N=C1N)[C@H](CC(=O)N)NC[C@@H](C(=O)N)N)C(=O)N[C@@H]([C@H](C2=CN=CN2)OC3C(C(C(C(O3)CO)O)O)OC4C(C(C(C(O4)CO)O)OC(=O)N)O)C(=O)N[C@H](C)[C@H]([C@H](C)C(=O)N[C@@H]([C@@H](C)O)C(=O)NCCC5=NC(=CS5)C6=NC(=CS6)C(=O)NCCC[S+](C)C)O [Bleomycin]
To be noted: main component drawn. The method in brief: (§1)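 Hoechst staining, done together with fixation and permeabilisation, marked nuclei for 4× imaging and MetaXpress counting. This followed 5 days without medium change after lung cancer cell lines, kept overnight at 37 °C in 1536-well plates, were pinned with five library-drug doses (not always all listed) spaced by √10 on vehicle-anchored plates. Viability is the ratio of treated-well to vehicle-well nuclei, expressed as a median across plates. Plates passed only at control CV below 25% with at least one doubling.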

Compound in a further assay: COc1cc([C@@H]2c3cc4c(cc3[C@@H](O[C@@H]3O[C@@H]5CO[C@@H](C)O[C@H]5[C@H](O)[C@H]3O)[C@H]3COC(=O)[C@H]23)OCO4)cc(OC)c1O [Etoposide]
Summed up: as §1

Compound in the assay “Bleomycin + Palbociclib”: CC1=C(N=C(N=C1N)[C@H](CC(=O)N)NC[C@@H](C(=O)N)N)C(=O)N[C@@H]([C@H](C2=CN=CN2)OC3C(C(C(C(O3)CO)O)O)OC4C(C(C(C(O4)CO)O)OC(=O)N)O)C(=O)N[C@H](C)[C@H]([C@H](C)C(=O)N[C@@H]([C@@H](C)O)C(=O)NCCC5=NC(=CS5)C6=NC(=CS6)C(=O)NCCC[S+](C)C)O [Bleomycin] + CC(=O)c1c(C)c2cnc(Nc3ccc(N4CCNCC4)cn3)nc2n(C2CCCC2)c1=O [Palbociclib] (partner 0.5 µM)
The following applies: main component drawn. The method in brief: (§2)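 Lung cancer cell lines were seeded in 1536-well plates and dosed by pin tool the next day, with either a single drug or a fixed anchor-drug dose combined with five library-drug doses (not always all listed) spaced in √10 steps. Five days later, one step fixed the cells and stained their nuclei (final 0.05% Triton X-100, 1% formaldehyde, 1 ug/ml Hoechst), and nuclei were counted on 4× images. Relative viability is the nuclei count in treated wells divided by the count in vehicle wells, and each value is the median of duplicate plates.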

Compound in the assay “Bleomycin + Tozasertib”: CC1=C(N=C(N=C1N)[C@H](CC(=O)N)NC[C@@H](C(=O)N)N)C(=O)N[C@@H]([C@H](C2=CN=CN2)OC3C(C(C(C(O3)CO)O)O)OC4C(C(C(C(O4)CO)O)OC(=O)N)O)C(=O)N[C@H](C)[C@H]([C@H](C)C(=O)N[C@@H]([C@@H](C)O)C(=O)NCCC5=NC(=CS5)C6=NC(=CS6)C(=O)NCCC[S+](C)C)O [Bleomycin] + Cc1cc(Nc2cc(N3CCN(C)CC3)nc(Sc3ccc(NC(=O)C4CC4)cc3)n2)n[nH]1 [Tozasertib] (partner 0.1 µM)
To be noted: main component drawn. The method in brief:
as §2

UMC-11: the relative viability with Bleomycin (0.01 µM) came out at 0.936; with Bleomycin (0.03162 µM), 0.918; with Bleomycin (0.1 µM), 0.922; with Bleomycin (0.3162 µM), 0.769; with Bleomycin (1 µM) it was 0.496; in the assay with Etoposide (0.01 µM), 0.999. For the same cell line, the relative viability with Etoposide (0.03162 µM) turned out to be 1.06; in the assay with Etoposide (0.1 µM) it was 0.507; in the assay with Etoposide (0.3162 µM) it was 0.607; with Etoposide (1 µM) it was 0.343; in the assay with Bleomycin + Palbociclib (first compound 0.01 µM), 0.311; in the assay with Bleomycin + Palbociclib (first compound 0.03162 µM) it was 0.334. The relative viability with Bleomycin + Palbociclib (first compound 0.1 µM) is 0.355; with Bleomycin + Palbociclib (first compound 0.3162 µM), 0.313; with Bleomycin + Palbociclib (first compound 1 µM) it was 0.263; with Bleomycin + Tozasertib (first compound 0.01 µM) it was 0.185; with Bleomycin + Tozasertib (first compound 0.03162 µM), 0.196; with Bleomycin + Tozasertib (first compound 0.1 µM) it was 0.208. The relative viability in the assay with Bleomycin + Tozasertib (first compound 0.3162 µM) is 0.203; in the assay with Bleomycin + Tozasertib (first compound 1 µM) it was 0.18.

The values above are taken from the supplement of paper PMC10307832.
